Test results from US20240415819A1, “MACROCYCLIC COMPOUNDS AS PROTEASOME SUBUNIT BETA TYPE-5 INHIBITORS” (Lead Discovery Center GmbH, priority 2021, published 2024).

Tested on: hPMBC
Test: Chymotrypsin-like ProteasomeGlo assay in hPBMC
Format: cell-based
Conditions: Homo sapiens; read-out: Pglo hPBMC
In short: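 IC50 derived from luminescent chymotrypsin-like proteasome activity (Suc-LLVY-Glo substrate plus luciferin detection reagent). Measured after 105 min compound exposure at 37 °C, 5% CO2. Cells were human B cells purified from buffy-coat PBMC.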

Row | Structure (SMILES) | IC50 [nM]
1 | Cc1ccc2cc1CNC(=O)[C@H](CCc1ccccc1)NC(=O)[C@@H](NC(=O)Cc1cccc(N)c1)CC(=O)N1CCCC(CCO2)C1 (stereo partly drawn) [Compound 127, 2-(3-aminophenyl)-N-((9S,12S)-5^4-methyl-8,11,14-trioxo-9-phenethyl-4-oxa-7,10-diaza-1(3,1)-piperidina-5(1,3)-benzenacyclotetradecaphane-12-yl)acetamide] | < 100
2 | CC(=O)N[C@H]1CC(=O)N2CCCC(CCOc3ccc(C)c(c3)CNC(=O)C(c3cnn(CCCS(=O)(=O)O)c3)NC1=O)C2 (stereo partly drawn) [Compound 571, 3-(4-((12S)-12-acetamido-5^4-methyl-8,11,14-trioxo-4-oxa-7,10-diaza-1(3,1)-piperidina-5(1,3)-benzenacyclotetradecaphane-9-yl)-1H-pyrazol-1-yl)propane-1-sulfonic acid] | < 100
3 | Cc1ccc2cc1CNC(=O)[C@H](CCc1ccccc1)NC(=O)[C@@H](NS(=O)(=O)CCc1ccccc1)CC(=O)N1CCCC(CCO2)C1 (stereo partly drawn) [Compound 217, N-((9S,12S)-5^4-methyl-8,11,14-trioxo-9-phenethyl-4-oxa-7,10-diaza-1(3,1)-piperidina-5(1,3)-benzenacyclotetradecaphane-12-yl)-2-phenylethane-1-sulfonamide] | < 100
4 | Cc1ccc2cc1CNC(=O)[C@H](CCc1ccccc1)NC(=O)[C@@H](NC(=O)OCc1ccccc1)CCC(=O)N1CCCC(CCO2)C1 (stereo partly drawn) [Compound 199, benzyl ((9S,12S)-5^4-methyl-8,11,15-trioxo-9-phenethyl-4-oxa-7,10-diaza-1(3,1)-piperidina-5(1,3)-benzenacyclopentadecaphane-12-yl)carbamate] | < 100
5 | CC(=O)N[C@H]1CCC(=O)N2CCOC(CCOc3ccc(C)c(c3)CNC(=O)[C@H](CCc3ccccc3)NC1=O)C2 (stereo partly drawn) [Compound 143, N-((9S,12S)-5^4-methyl-8,11,15-trioxo-9-phenethyl-4-oxa-7,10-diaza-1(2,4)-morpholina-5(1,3)-benzenacyclopentadecaphane-12-yl)acetamide] | < 100
6 | CO[C@@H](C(=O)N[C@H]1CC(=O)N2CCCC(CCOc3ccc(C)c(c3)CNC(=O)[C@H](CCc3ccccc3)NC1=O)C2)c1ccccc1 (stereo partly drawn) [Compound 86, (2R)-2-methoxy-N-((9S,12S)-5^4-methyl-8,11,14-trioxo-9-phenethyl-4-oxa-7,10-diaza-1(3,1)-piperidina-5(1,3)-benzenacyclotetradecaphane-12-yl)-2-phenylacetamide] | < 100
7 | CC(=O)N[C@H]1CCCC(=O)N2CCOC(CCOc3ccc(C)c(c3)CNC(=O)[C@H](CCc3ccccc3)NC1=O)C2 (stereo partly drawn) [Compound 186, N-((9S,12S)-5^4-methyl-8,11,16-trioxo-9-phenethyl-4-oxa-7,10-diaza-1(2,4)-morpholina-5(1,3)-benzenacyclohexadecaphane-12-yl)acetamide] | 100 to 500
8 | Cc1ccc2cc1CNC(=O)[C@H](C)NC(=O)CCC(=O)N1CCCC(CCO2)C1 (stereo partly drawn) [Compound 78, (9S)-5^4,9-dimethyl-4-oxa-7,10-diaza-1(3,1)-piperidina-5(1,3)-benzenacyclotetradecaphane-8,11,14-trione] | 500 to 1000
9 | Cc1ccc2cc1CNC(=O)[C@H](CCc1ccccc1)NC(=O)[C@@H](NC(=O)[C@@H](C)c1ccccc1)CC(=O)N1CCCC(CCO2)C1 (stereo partly drawn) [Compound 81, (2S)-N-((9S,12S)-5^4-methyl-8,11,14-trioxo-9-phenethyl-4-oxa-7,10-diaza-1(3,1)-piperidina-5(1,3)-benzenacyclotetradecaphane-12-yl)-2-phenylpropanamide] | < 100
10 | COCCOCCOCCOCCOCCC(=O)N[C@H]1CC(=O)N2CCCC(CCOc3ccc(C)c(c3)CNC(=O)[C@H](CCc3ccccc3)NC1=O)C2 (stereo partly drawn) [Compound 219, N-((9S,12S)-5^4-methyl-8,11,14-trioxo-9-phenethyl-4-oxa-7,10-diaza-1(3,1)-piperidina-5(1,3)-benzenacyclotetradecaphane-12-yl)-2,5,8,11,14-pentaoxaheptadecan-17-amide] | < 100
11 | CC(=O)N[C@H]1CCCC(=O)N2CC3CC(Oc4ccc(C)c(c4)CNC(=O)[C@H](CCc4ccccc4)NC1=O)C3C2 (stereo partly drawn) [Compound 191, N-((11R,15S,7S,10S)-3^4-methyl-6,9,14-trioxo-7-phenethyl-2-oxa-13,5,8-triaza-1(7,3)-bicyclo[3.2.0]heptana-3(1,3)-benzenacyclotetradecaphane-10-yl)acetamide] | 100 to 500
12 | Cc1ccc2cc1CNC(=O)[C@H](CCc1ccccc1)NC(=O)[C@@H](NC(=O)C1(C)CCNCC1)CC(=O)N1CCCC(CCO2)C1 (stereo partly drawn) [Compound 136, 4-methyl-N-((9S,12S)-5^4-methyl-8,11,14-trioxo-9-phenethyl-4-oxa-7,10-diaza-1(3,1)-piperidina-5(1,3)-benzenacyclotetradecaphane-12-yl)piperidine-4-carboxamide] | < 100
13 | Cc1ccc2cc1CNC(=O)[C@H](CCc1ccccc1)NC(=O)[C@@H](NC(=O)C(C)(C)C#N)CC(=O)N1CCCC(CCO2)C1 (stereo partly drawn) [Compound 294, 2-cyano-2-methyl-N-((9S,12S)-54-methyl-8,11,14-trioxo-9-phenethyl-4-oxa-7,10-diaza-1(3,1)-piperidina-5(1,3)-benzenacyclotetradecaphane-12-yl)propanamide] | < 100
14 | CC(=O)N[C@H]1CCCC(=O)N2CCCC(CCOc3ccc(C)c(c3)CNC(=O)[C@H](CCc3ccccc3)NC1=O)C2 (stereo partly drawn) [Compound 213, N-((9S,12S)-5^4-methyl-8,11,16-trioxo-9-phenethyl-4-oxa-7,10-diaza-1(3,1)-piperidina-5(1,3)-benzenacyclohexadecaphane-12-yl)acetamide] | < 100
15 | Cc1ccc2cc1CNC(=O)[C@H](CCc1ccccc1)NC(=O)[C@@H](NC(=O)OCc1ccccc1)CCCC(=O)N1CCCC(CCO2)C1 (stereo partly drawn) [Compound 195, benzyl ((9S,12S)-5^4-methyl-8,11,16-trioxo-9-phenethyl-4-oxa-7,10-diaza-1(3,1)-piperidina-5(1,3)-benzenacyclohexadecaphane-12-yl)carbamate] | < 100
16 | Cc1ccc2cc1CNC(=O)[C@H](CCc1ccccc1)NC(=O)[C@@H](NC(=O)C1CCNCC1(F)F)CC(=O)N1CCCC(CCO2)C1 (stereo partly drawn) [Compound 152, 3,3-difluoro-N-((9S,12S)-5^4-methyl-8,11,14-trioxo-9-phenethyl-4-oxa-7,10-diaza-1(3,1)-piperidina-5(1,3)-benzenacyclotetradecaphane-12-yl)piperidine-4-carboxamide] | < 100
17 | CC(=O)N[C@H]1CCC(=O)N2CCCC(CCOc3ccc(C)c(c3)CNC(=O)[C@H](CCc3ccccc3)NC1=O)C2 (stereo partly drawn) [Compound 215, N-((9S,12S)-5^4-methyl-8,11,15-trioxo-9-phenethyl-4-oxa-7,10-diaza-1(3,1)-piperidina-5(1,3)-benzenacyclopentadecaphane-12-yl)acetamide] | < 100
18 | Cc1ccc2cc1CNC(=O)[C@@H](CCc1ccccc1)NC(=O)[C@@H](NC(=O)OCc1ccccc1)CC(=O)N1CCC[C@H](CCO2)C1 [Compound 289, benzyl ((13R,9R,12S)-5^4-methyl-8,11,14-trioxo-9-phenethyl-4-oxa-7,10-diaza-1(3,1)-piperidina-5(1,3)-benzenacyclotetradecaphane-12-yl)carbamate] | 500 to 1000
19 | CC(=O)N[C@H]1CC(=O)N2CCCC(CCOc3ccc(F)c(c3)CNC(=O)[C@H](CCc3ccccc3)NC1=O)C2 (stereo partly drawn) [Compound 205, N-((9S,12S)-5^4-fluoro-8,11,14-trioxo-9-phenethyl-4-oxa-7,10-diaza-1(3,1)-piperidina-5(1,3)-benzenacyclotetradecaphane-12-yl)acetamide] | < 100
20 | CC(=O)N[C@H]1CCC(=O)N(C)CCCCOc2ccc(C)c(c2)CNC(=O)[C@H](CCc2ccccc2)NC1=O [Compound 282, N-((11S,14S)-1^4,7-dimethyl-8,12,15-trioxo-1^4-phenethyl-2-oxa-7,13,16-triaza-1(1,3)-benzenacycloheptadecaphane-11-yl)acetamide] | 500 to 1000
21 | Cc1ccc2cc1CNC(=O)[C@H](CCc1ccccc1)NC(=O)[C@@H](NC(=O)C1CCN1)CC(=O)N1CCCC(CCO2)C1 (stereo partly drawn) [Compound 160, (2R)-N-((9S,12S)-5^4-methyl-8,11,14-trioxo-9-phenethyl-4-oxa-7,10-diaza-1(3,1)-piperidina-5(1,3)-benzenacyclotetradecaphane-12-yl)azetidine-2-carboxamide] | < 100
22 | Cc1ccc2cc1CNC(=O)[C@H](CCc1ccccc1)NC(=O)[C@@H](NC(=O)C1(C)CCOCC1)CC(=O)N1CCCC(CCO2)C1 (stereo partly drawn) [Compound 288, 4-methyl-N-((9S,12S)-5^4-methyl-8,11,14-trioxo-9-phenethyl-4-oxa-7,10-diaza-1(3,1)-piperidina-5(1,3)-benzenacyclotetradecaphane-12-yl)tetrahydro-2H-pyran-4-carboxamide] | < 100
23 | Cc1ccc2cc1CNC(=O)[C@@H](CCc1ccccc1)NC(=O)[C@H](NC(=O)OCc1ccccc1)CC(=O)N1CCC[C@H](CCO2)C1 [Compound 290, benzyl ((13R,9R,12R)-5^4-methyl-8,11,14-trioxo-9-phenethyl-4-oxa-7,10-diaza-1(3,1)-piperidina-5(1,3)-benzenacyclotetradecaphane-12-yl)carbamate] | > 5000
24 | Cc1ccc2cc1CNC(=O)[C@H](CCc1ccccc1)NC(=O)[C@@H](NC(=O)c1cc3cc(C(F)(F)F)ccc3n1C)CC(=O)N1CCCC(CCO2)C1 (stereo partly drawn) [Compound 87, 1-methyl-N-((9S,12S)-5^4-methyl-8,11,14-trioxo-9-phenethyl-4-oxa-7,10-diaza-1(3,1)-piperidina-5(1,3)-benzenacyclotetradecaphane-12-yl)-5-(trifluoromethyl)-1H-indole-2-carboxamide] | < 100
25 | Cc1ccc2cc1CNC(=O)C(c1cnn(C)c1)NC(=O)CCC(=O)N1CCCC(CCO2)C1 (stereo not shown) [Compound 116, 5^4-methyl-9-(1-methyl-1H-pyrazol-4-yl)-4-oxa-7,10-diaza-1(3,1)-piperidina-5(1,3)-benzenacyclotetradecaphane-8,11,14-trione] | 500 to 1000
